Laboratory results: patent US6525001B1, “Substituted pyrimidine and pyridine herbicides” (Mid-American Commercialization Corporation, priority 1997, dated 2003)

Columns and labels:
Test in all cases: Test B pre-/postemergence
Assay type in all cases: in vivo
Design in all cases: key: 0 is no effect; 10 is complete control
corn (Zea mays) = tested on: corn (Zea mays)
How it was run: (§1)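 Compounds in a surfactant-containing, non-phytotoxic solvent blend are applied to freshly planted seed (preemergence) and, concurrently, to seedlings of 2 to 18 cm at 1–4 leaves (postemergence). Plants stay in the greenhouse twelve to sixteen days and are then scored visually from 0 (no effect) to 10 (complete control).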

[1] = tested on: purple nutsedge (Cyperus rotundus)
How it was run: as §1

[2] = tested on: momingglory (Ipomoea hederacea)
How it was run: as §1

[3] = tested on: broadleaf signalgrass (Brachiaria decumbens)
How it was run: as §1

[4] = tested on: giant foxtail (Setaria faberii)
How it was run: as §1

[5] = tested on: wheat (Triticum aestivum)
How it was run: as §1

[6] = tested on: velvetleaf (Abutilon theophrasti)
How it was run: as §1

[7] = tested on: sugar beet (Beta vulgaris)
How it was run: as §1

[8] = tested on: cocklebur (Xanthium strumarium)
How it was run: as §1

[9] = tested on: blackgrass (Alopecurus myosuroides)
How it was run: as §1

[10] = tested on: crabgrass (Digitaria sanguinalis)
How it was run: as §1

[11] = tested on: pigweed (Amaranthus retroflexus)
How it was run: as §1

wild oat (Avena fatua) = tested on: wild oat (Avena fatua)
How it was run: as §1

soybean (Glycine max) = tested on: soybean (Glycine max)
How it was run: as §1

[12] = Preemergence, Rate 62 g/ha, scale of 0 to 10

Cc1cnc(-c2ccc(C(F)(F)F)cc2)nc1Cn1cc(Br)cn1 [Compound 54]
8: Plant response rating, Giant foxtail ([4]; Rate 250 g/ha, Preemergence) | Plant response rating, Crabgrass ([10]; Rate 500 g/ha, Preemergence)
1: Plant response rating, Corn (corn (Zea mays); Rate 250 g/ha, Preemergence) | Plant response rating, Corn (corn (Zea mays); Rate 500 g/ha, Preemergence) | Plant response rating, Morningglory ([2]; Rate 125 g/ha, Preemergence) | Plant response rating, B. signalgrass ([3]; Rate 125 g/ha, Preemergence) | Plant response rating, Giant foxtail [4, 12] | Plant response rating, Giant foxtail ([4]; Rate 125 g/ha, Preemergence) | Plant response rating, Wheat ([5]; Rate 500 g/ha, Preemergence) | Plant response rating, Velvetleaf ([6]; Rate 250 g/ha, Preemergence) | Plant response rating, Velvetleaf ([6]; Rate 500 g/ha, Preemergence) | Plant response rating, Sugarbeets ([7]; Rate 125 g/ha, Preemergence) | Blackgrass plant response rating ([9]; Rate 62 g/ha, Postemergence) | Blackgrass plant response rating ([9]; Rate 125 g/ha, Postemergence) | Plant response rating, Blackgrass ([9]; Rate 125 g/ha, Preemergence) | Plant response rating, Redroot pigweed [11, 12] | Wild oats plant response rating (wild oat (Avena fatua); Rate 62 g/ha, Postemergence) | Plant response rating, Wild oats (wild oat (Avena fatua); Rate 125 g/ha, Preemergence)
10: Plant response rating, Morningglory ([2]; Rate 500 g/ha, Postemergence) | Plant response rating, Giant foxtail ([4]; Rate 500 g/ha, Preemergence)
0: Plant response rating, Corn (corn (Zea mays); [12]) | Plant response rating, Corn (corn (Zea mays); Rate 125 g/ha, Preemergence) | Plant response rating, Nutsedge [1, 12] | Nutsedge plant response rating ([1]; Rate 62 g/ha, Postemergence) | Nutsedge plant response rating ([1]; Rate 125 g/ha, Postemergence) | Plant response rating, Nutsedge ([1]; Rate 125 g/ha, Preemergence) | Plant response rating, Nutsedge ([1]; Rate 250 g/ha, Postemergence) | Plant response rating, Nutsedge ([1]; Rate 250 g/ha, Preemergence) | Plant response rating, Nutsedge ([1]; Rate 500 g/ha, Postemergence) | Plant response rating, Nutsedge ([1]; Rate 500 g/ha, Preemergence) | Plant response rating, Morningglory [2, 12] | B. signalgrass plant response rating ([3]; Rate 62 g/ha, Preemergence) | Plant response rating, Wheat [5, 12] | Wheat plant response rating ([5]; Rate 62 g/ha, Postemergence) | Plant response rating, Wheat ([5]; Rate 125 g/ha, Preemergence) | Plant response rating, Wheat ([5]; Rate 250 g/ha, Preemergence) | Plant response rating, Velvetleaf [6, 12] | Plant response rating, Velvetleaf ([6]; Rate 125 g/ha, Preemergence) | Plant response rating, Sugarbeets [7, 12] | Plant response rating, Cocklebur ([8]; Rate 125 g/ha, Preemergence) | Plant response rating, Cocklebur ([8]; Rate 250 g/ha, Preemergence) | Plant response rating, Cocklebur ([8]; Rate 500 g/ha, Preemergence) | Plant response rating, Blackgrass [9, 12] | Plant response rating, Crabgrass [10, 12] | Plant response rating, Crabgrass ([10]; Rate 125 g/ha, Preemergence) | Plant response rating, Wild oats (wild oat (Avena fatua); [12]) | Plant response rating, Soybean (soybean (Glycine max); [12]) | Soybean plant response rating (soybean (Glycine max); Rate 62 g/ha, Postemergence) | Plant response rating, Soybean (soybean (Glycine max); Rate 125 g/ha, Preemergence) | Plant response rating, Soybean (soybean (Glycine max); Rate 250 g/ha, Preemergence) | Plant response rating, Soybean (soybean (Glycine max); Rate 500 g/ha, Preemergence)
6: Plant response rating, B. signalgrass ([3]; Rate 500 g/ha, Preemergence) | Sugarbeets plant response rating ([7]; Rate 62 g/ha, Postemergence) | Plant response rating, Redroot pigweed ([11]; Rate 250 g/ha, Postemergence)
3: Plant response rating, Corn (corn (Zea mays); Rate 250 g/ha, Postemergence) | Plant response rating, Corn (corn (Zea mays); Rate 500 g/ha, Postemergence) | Morningglory plant response rating ([2]; Rate 125 g/ha, Postemergence) | Plant response rating, Morningglory ([2]; Rate 250 g/ha, Postemergence) | B. signalgrass plant response rating ([3]; Rate 62 g/ha, Postemergence) | B. signalgrass plant response rating ([3]; Rate 125 g/ha, Postemergence) | Plant response rating, B. signalgrass ([3]; Rate 250 g/ha, Preemergence) | Giant foxtail plant response rating ([4]; Rate 125 g/ha, Postemergence) | Plant response rating, Velvetleaf ([6]; Rate 250 g/ha, Postemergence) | Plant response rating, Velvetleaf ([6]; Rate 500 g/ha, Postemergence) | Cocklebur plant response rating ([8]; Rate 62 g/ha, Postemergence) | Cocklebur plant response rating ([8]; Rate 125 g/ha, Postemergence) | Plant response rating, Blackgrass ([9]; Rate 250 g/ha, Preemergence) | Plant response rating, Blackgrass ([9]; Rate 500 g/ha, Postemergence) | Plant response rating, Crabgrass ([10]; Rate 250 g/ha, Preemergence) | Plant response rating, Wild oats (wild oat (Avena fatua); Rate 250 g/ha, Postemergence) | Plant response rating, Wild oats (wild oat (Avena fatua); Rate 250 g/ha, Preemergence) | Plant response rating, Wild oats (wild oat (Avena fatua); Rate 500 g/ha, Postemergence) | Soybean plant response rating (soybean (Glycine max); Rate 125 g/ha, Postemergence)
2: Corn plant response rating (corn (Zea mays); Rate 62 g/ha, Postemergence) | Corn plant response rating (corn (Zea mays); Rate 125 g/ha, Postemergence) | Morningglory plant response rating ([2]; Rate 62 g/ha, Postemergence) | Plant response rating, Morningglory ([2]; Rate 250 g/ha, Preemergence) | Plant response rating, Morningglory ([2]; Rate 500 g/ha, Preemergence) | Giant foxtail plant response rating ([4]; Rate 62 g/ha, Postemergence) | Wheat plant response rating ([5]; Rate 125 g/ha, Postemergence) | Plant response rating, Wheat ([5]; Rate 250 g/ha, Postemergence) | Plant response rating, Wheat ([5]; Rate 500 g/ha, Postemergence) | Velvetleaf plant response rating ([6]; Rate 62 g/ha, Postemergence) | Velvetleaf plant response rating ([6]; Rate 125 g/ha, Postemergence) | Plant response rating, Blackgrass ([9]; Rate 250 g/ha, Postemergence) | Crabgrass plant response rating ([10]; Rate 62 g/ha, Postemergence) | Plant response rating, Redroot pigweed ([11]; Rate 125 g/ha, Preemergence) | Wild oats plant response rating (wild oat (Avena fatua); Rate 125 g/ha, Postemergence)
9: Plant response rating, Sugarbeets ([7]; Rate 250 g/ha, Postemergence) | Plant response rating, Sugarbeets ([7]; Rate 500 g/ha, Postemergence) | Plant response rating, Sugarbeets ([7]; Rate 500 g/ha, Preemergence) | Plant response rating, Cocklebur ([8]; Rate 500 g/ha, Postemergence) | Plant response rating, Redroot pigweed ([11]; Rate 500 g/ha, Preemergence)
4: Plant response rating, B. signalgrass ([3]; Rate 250 g/ha, Postemergence) | Plant response rating, Giant foxtail ([4]; Rate 250 g/ha, Postemergence) | Plant response rating, Giant foxtail ([4]; Rate 500 g/ha, Postemergence) | Plant response rating, Blackgrass ([9]; Rate 500 g/ha, Preemergence) | Crabgrass plant response rating ([10]; Rate 125 g/ha, Postemergence) | Redroot pigweed plant response rating ([11]; Rate 62 g/ha, Postemergence) | Plant response rating, Wild oats (wild oat (Avena fatua); Rate 500 g/ha, Preemergence) | Plant response rating, Soybean (soybean (Glycine max); Rate 250 g/ha, Postemergence) | Plant response rating, Soybean (soybean (Glycine max); Rate 500 g/ha, Postemergence)
5: Plant response rating, B. signalgrass ([3]; Rate 500 g/ha, Postemergence) | Plant response rating, Crabgrass ([10]; Rate 250 g/ha, Postemergence) | Plant response rating, Crabgrass ([10]; Rate 500 g/ha, Postemergence) | Redroot pigweed plant response rating ([11]; Rate 125 g/ha, Postemergence)
7: Sugarbeets plant response rating ([7]; Rate 125 g/ha, Postemergence) | Plant response rating, Sugarbeets ([7]; Rate 250 g/ha, Preemergence) | Plant response rating, Cocklebur ([8]; Rate 250 g/ha, Postemergence) | Plant response rating, Redroot pigweed ([11]; Rate 250 g/ha, Preemergence) | Plant response rating, Redroot pigweed ([11]; Rate 500 g/ha, Postemergence)
